Experimental data published in PubChem BioAssay AID248 (DTP/NCI, 2004).
Where “and” joins values, the source holds several entries; their conditions need not be identical. Equal values may be shown once. Inconclusive results and toxic doses are left out. Cut-off read from the data, not from the text of the source: active = T/C of 150% or more; inactive = T/C below 125%.

Test system: L1210 leukemia ip in BDF1 mice, survival T/C
Assay: NCI In Vivo Anticancer Drug Screen. Data for tumor model L1210 Leukemia (intraperitoneal) in B6D2F1 (BDF1) mice
Conditions: endpoint: mean survival time, higher = longer survival
Procedure, shortened: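 Value reflects the ratio of survival in compound-treated mice to survival in vehicle-treated controls, with both groups carrying the same transplanted tumor.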

[1] = dose: 100.0 mg/kg/injection, schedule: Q01DX009 (ip), vehicle: saline with Tween-80
[2] = dose: 100.0 mg/kg/injection, schedule: Q04DX003 (ip), vehicle: saline with Tween-80
[3] = dose: 200.0 mg/kg/injection, schedule: Q01DX009 (ip), vehicle: saline with Tween-80
[4] = dose: 200.0 mg/kg/injection, schedule: Q04DX003 (ip), vehicle: saline with Tween-80
[5] = dose: 400.0 mg/kg/injection, schedule: Q01DX009 (ip), vehicle: saline with Tween-80
[6] = dose: 400.0 mg/kg/injection, schedule: Q04DX003 (ip), vehicle: saline with Tween-80
[7] = dose: 3.12 mg/kg/injection, schedule: Q01DX009 (ip), vehicle: saline
[8] = dose: 100.0 mg/kg/injection, schedule: Q01DX009 (ip), vehicle: saline
[9] = dose: 50.0 mg/kg/injection, schedule: Q01DX001 (ip), vehicle: saline
[10] = dose: 100.0 mg/kg/injection, schedule: Q01DX001 (ip), vehicle: saline
[11] = dose: 200.0 mg/kg/injection, schedule: Q01DX001 (ip), vehicle: saline
[12] = dose: 400.0 mg/kg/injection, schedule: Q01DX001 (ip), vehicle: saline
[13] = dose: 100.0 mg/kg/injection, schedule: Q04DX003 (ip), vehicle: saline
[14] = dose: 100.0 mg/kg/injection, schedule: Q01DX009 (ip), vehicle: Klucel (hydroxypropylcellulose) (HPC)
[15] = dose: 200.0 mg/kg/injection, schedule: Q01DX009 (ip), vehicle: Klucel (hydroxypropylcellulose) (HPC)
[16] = dose: 200.0 mg/kg/injection, schedule: Q04DX003 (ip), vehicle: saline

Measured: T/C

Cc1cc(C)c(NC(=S)NC(=O)/C=C/c2ccccc2)c(C)c1
inactive: dose: 100.0 mg/kg/injection, schedule: Q01DX001 (ip), vehicle: saline with Tween-80 100 % of control | [1] 97 % of control and 89 % of control | dose: 100.0 mg/kg/injection, schedule: Q04DX002 (ip), vehicle: saline with Tween-80 101 % of control | [2] 92 % of control | dose: 200.0 mg/kg/injection, schedule: Q01DX001 (ip), vehicle: saline with Tween-80 92 % of control | [3] 101 % of control and 107 % of control | dose: 200.0 mg/kg/injection, schedule: Q04DX002 (ip), vehicle: saline with Tween-80 104 % of control | [4] 92 % of control | dose: 400.0 mg/kg/injection, schedule: Q01DX001 (ip), vehicle: saline with Tween-80 97 % of control | [5] 92 % of control and 96 % of control | dose: 400.0 mg/kg/injection, schedule: Q04DX002 (ip), vehicle: saline with Tween-80 87 % of control | [6] 91 % of control

O=C(Nc1cccc2ccccc12)Nc1cccc2ccccc12
inactive: dose: 100.0 mg/kg/injection, schedule: Q01DX001 (ip), vehicle: carboxymethylcellulose (CMC) 95 % of control | dose: 200.0 mg/kg/injection, schedule: Q01DX001 (ip), vehicle: carboxymethylcellulose (CMC) 90 % of control | dose: 400.0 mg/kg/injection, schedule: Q01DX001 (ip), vehicle: carboxymethylcellulose (CMC) 92 % of control

CCCNCC1OC(OC)C2OC(C)(C)OC12 (stereo not given)
inactive: dose: 0.78 mg/kg/injection, schedule: Q01DX009 (ip), vehicle: saline 100 % of control | dose: 1.56 mg/kg/injection, schedule: Q01DX009 (ip), vehicle: saline 96 % of control | [7] 98 % of control | dose: 100.0 mg/kg/injection, schedule: Q01DX005 (ip), vehicle: saline 99 % of control | [8] 88 % of control | dose: 200.0 mg/kg/injection, schedule: Q01DX005 (ip), vehicle: saline 106 % of control | dose: 200.0 mg/kg/injection, schedule: Q01DX009 (ip), vehicle: saline 91 % of control

O=c1[nH]c2cnn(-c3ccccc3)c2c(=O)n1OS(=O)(=O)c1ccccc1
inactive: dose: 5.0 mg/kg/injection, schedule: Q01DX001 (ip), vehicle: saline 103 % of control | dose: 10.0 mg/kg/injection, schedule: Q01DX001 (ip), vehicle: saline 100 % of control | dose: 20.0 mg/kg/injection, schedule: Q01DX001 (ip), vehicle: saline 100 % of control | dose: 40.0 mg/kg/injection, schedule: Q01DX001 (ip), vehicle: saline 97 % of control | [9] 109 % of control | dose: 80.0 mg/kg/injection, schedule: Q01DX001 (ip), vehicle: saline 97 % of control | [10] 100 % of control | [11] 97 % of control | [12] 103 % of control

O=C(/C=C/c1ccccc1)N/N=C/c1ccccc1Cl
inactive: dose: 50.0 mg/kg/injection, schedule: Q04DX002 (ip), vehicle: Klucel (hydroxypropylcellulose) (HPC) 108 % of control | dose: 100.0 mg/kg/injection, schedule: Q04DX002 (ip), vehicle: Klucel (hydroxypropylcellulose) (HPC) 100 % of control and 116 % of control | dose: 200.0 mg/kg/injection, schedule: Q04DX002 (ip), vehicle: Klucel (hydroxypropylcellulose) (HPC) 111 % of control | dose: 400.0 mg/kg/injection, schedule: Q04DX002 (ip), vehicle: Klucel (hydroxypropylcellulose) (HPC) 101 % of control and 110 % of control

O=C(NCCCl)NC1CCS(=O)(=O)C1 (stereo not given)
inactive: dose: 100.0 mg/kg/injection, schedule: Q01DX001 (ip), vehicle: other 98 % of control | dose: 200.0 mg/kg/injection, schedule: Q01DX001 (ip), vehicle: other 98 % of control | dose: 400.0 mg/kg/injection, schedule: Q01DX001 (ip), vehicle: other 98 % of control

COC1=C(Br)C(=O)C(Br)=C(OC)C1=O
inactive: dose: 100.0 mg/kg/injection, schedule: Q04DX002 (ip), vehicle: other 107 % of control | dose: 200.0 mg/kg/injection, schedule: Q04DX002 (ip), vehicle: other 96 % of control

CCOC(=O)Cc1c(C(=O)OCC)[nH]c(C)c1C(C)=O
inactive: dose: 100.0 mg/kg/injection, schedule: Q01DX001 (ip), vehicle: Klucel (hydroxypropylcellulose) (HPC) 104 % of control | dose: 200.0 mg/kg/injection, schedule: Q01DX001 (ip), vehicle: Klucel (hydroxypropylcellulose) (HPC) 95 % of control | dose: 400.0 mg/kg/injection, schedule: Q01DX001 (ip), vehicle: Klucel (hydroxypropylcellulose) (HPC) 95 % of control

CCC[N+](C)(C)CCCCOCCCC[N+](C)(C)CCC
inactive: [7] 104 % of control | dose: 6.25 mg/kg/injection, schedule: Q01DX009 (ip), vehicle: saline 92 % of control | dose: 12.5 mg/kg/injection, schedule: Q01DX009 (ip), vehicle: saline 103 % of control | dose: 12.5 mg/kg/injection, schedule: Q04DX003 (ip), vehicle: saline 95 % of control

CCOC(C(=O)OC1CCN(C)CC1)(c1ccccc1)c1ccccc1
inactive: dose: 25.0 mg/kg/injection, schedule: Q04DX003 (ip), vehicle: saline 97 % of control | dose: 50.0 mg/kg/injection, schedule: Q04DX003 (ip), vehicle: saline 96 % of control | [2] 93 % of control | [13] 97 % of control

O=c1ccn(Cc2ccccc2)c(SCc2ccccc2)n1
inactive: [9] 105 % of control | dose: 50.0 mg/kg/injection, schedule: Q01DX009 (ip), vehicle: Klucel (hydroxypropylcellulose) (HPC) 102 % of control | [10] 109 % of control | [14] 95 % of control | [11] 91 % of control | [15] 98 % of control | [12] 105 % of control

CC1CC=CCC1COC(=O)C(=O)OCC1CC=CCC1C (stereo not given)
inactive: [1] 98 % of control | [2] 101 % of control | [3] 95 % of control | [4] 97 % of control | [5] 95 % of control | [6] 95 % of control

O=[N+]([O-])c1ccccc1S(=O)(=O)Nc1ccccc1F
inactive: [14] 105 % of control | [15] 100 % of control | dose: 400.0 mg/kg/injection, schedule: Q01DX009 (ip), vehicle: Klucel (hydroxypropylcellulose) (HPC) 101 % of control

C=C1C(=O)OC2C=C(C(O)CC(C)O)C(C)CCC12 (stereo not given)
inactive: dose: 50.0 mg/kg/injection, schedule: Q01DX001 (ip), vehicle: water 89 % of control | dose: 100.0 mg/kg/injection, schedule: Q01DX001 (ip), vehicle: water 95 % of control | dose: 200.0 mg/kg/injection, schedule: Q01DX001 (ip), vehicle: water 94 % of control

Nc1cccnc1
inactive: dose: 5.0 mg/kg/injection, schedule: Q01DX009 (ip), vehicle: saline 104 % of control | dose: 10.0 mg/kg/injection, schedule: Q01DX009 (ip), vehicle: saline 95 % of control | dose: 20.0 mg/kg/injection, schedule: Q01DX009 (ip), vehicle: saline 98 % of control

CSc1nc(N)cc(Nc2ccc(Cl)[nH]c2=S)n1
inactive: dose: 75.0 mg/kg/injection, schedule: Q01DX001 (ip), vehicle: Klucel (hydroxypropylcellulose) (HPC) 92 % of control | dose: 150.0 mg/kg/injection, schedule: Q01DX001 (ip), vehicle: Klucel (hydroxypropylcellulose) (HPC) 95 % of control | dose: 300.0 mg/kg/injection, schedule: Q01DX001 (ip), vehicle: Klucel (hydroxypropylcellulose) (HPC) 93 % of control

CC1(C)CC(N)CC(C)(C)N1O
inactive: [13] 100 % of control | [16] 97 % of control

C1CCC(N=C(NC2CCCCC2)OC2CCCCC2)CC1
inactive: dose: 11.1 mg/kg/injection, schedule: Q01DX Z (ip), vehicle: methylcellulose (MC) 97 % of control | dose: 16.6 mg/kg/injection, schedule: Q01DX Z (ip), vehicle: methylcellulose (MC) 89 % of control | dose: 25.0 mg/kg/injection, schedule: Q01DX Z (ip), vehicle: methylcellulose (MC) 101 % of control

C1=CC2(OCCO2)C2CC=CC3(OCCO3)C2C1 (stereo not given)
inactive: [8] 113 % of control | [13] 109 % of control | [16] 98 % of control | dose: 400.0 mg/kg/injection, schedule: Q04DX003 (ip), vehicle: saline 109 % of control
